Consider 10 compounds from ChEMBL document CHEMBL3351874, “Rational design of inhibitors of the bacterial cell wall synthetic enzyme GlmU using virtual screening and lead-hopping” (Bioorg Med Chem, 2014).

Series [1] concerns the target Interleukin-1 receptor-associated kinase 1 (Homo sapiens, UniProt P51617). Kind of series: Inhibition of human IRAK1 incubated for 20 mins prior to MgCl2 addition measured after 90 mins by mobility shift assay.
The target of series [2] is Tyrosine-protein kinase JAK1 (Homo sapiens, UniProt P23458). Kind of series: Inhibition of human JAK1 incubated for 20 mins prior to MgCl2 addition measured after 90 mins by mobility shift assay.
Sequence of Tyrosine-protein kinase JAK1 (P23458 whole entry): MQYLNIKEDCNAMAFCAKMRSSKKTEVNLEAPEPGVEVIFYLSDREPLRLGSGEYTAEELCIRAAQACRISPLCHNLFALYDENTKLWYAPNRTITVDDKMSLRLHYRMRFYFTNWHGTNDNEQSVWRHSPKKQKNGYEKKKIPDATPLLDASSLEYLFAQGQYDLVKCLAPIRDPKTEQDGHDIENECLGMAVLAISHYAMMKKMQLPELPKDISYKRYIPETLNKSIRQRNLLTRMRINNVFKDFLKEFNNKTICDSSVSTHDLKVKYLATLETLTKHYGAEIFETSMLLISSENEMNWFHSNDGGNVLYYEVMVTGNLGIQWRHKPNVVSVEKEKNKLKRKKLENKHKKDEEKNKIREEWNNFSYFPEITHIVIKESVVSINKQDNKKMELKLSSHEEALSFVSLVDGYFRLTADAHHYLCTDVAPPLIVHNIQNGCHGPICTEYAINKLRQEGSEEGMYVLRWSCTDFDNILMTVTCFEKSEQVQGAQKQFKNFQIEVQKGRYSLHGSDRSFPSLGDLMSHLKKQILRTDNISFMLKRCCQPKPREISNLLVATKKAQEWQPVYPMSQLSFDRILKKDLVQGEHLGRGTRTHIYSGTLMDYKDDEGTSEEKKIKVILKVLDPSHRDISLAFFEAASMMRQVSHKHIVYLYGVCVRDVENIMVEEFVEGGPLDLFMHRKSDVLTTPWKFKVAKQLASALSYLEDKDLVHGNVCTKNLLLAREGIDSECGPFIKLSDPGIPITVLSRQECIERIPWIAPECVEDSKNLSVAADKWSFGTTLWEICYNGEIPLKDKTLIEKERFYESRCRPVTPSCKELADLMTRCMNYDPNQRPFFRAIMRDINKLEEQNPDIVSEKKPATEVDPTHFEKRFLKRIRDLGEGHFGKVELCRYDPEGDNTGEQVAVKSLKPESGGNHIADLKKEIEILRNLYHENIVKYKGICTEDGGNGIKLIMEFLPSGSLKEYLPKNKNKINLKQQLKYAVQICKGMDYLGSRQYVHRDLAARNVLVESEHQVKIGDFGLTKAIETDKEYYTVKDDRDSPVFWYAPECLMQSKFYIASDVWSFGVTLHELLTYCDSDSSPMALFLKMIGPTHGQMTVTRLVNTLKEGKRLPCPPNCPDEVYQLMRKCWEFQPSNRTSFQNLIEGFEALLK
Series [3] deals with Cyclin-dependent kinase 9 (Homo sapiens, UniProt P50750). Nature of the series: Inhibition of human CDK9 incubated for 20 mins prior to MgCl2 addition measured after 90 mins by mobility shift assay.
Sequence of Cyclin-dependent kinase 9 (P50750 whole entry): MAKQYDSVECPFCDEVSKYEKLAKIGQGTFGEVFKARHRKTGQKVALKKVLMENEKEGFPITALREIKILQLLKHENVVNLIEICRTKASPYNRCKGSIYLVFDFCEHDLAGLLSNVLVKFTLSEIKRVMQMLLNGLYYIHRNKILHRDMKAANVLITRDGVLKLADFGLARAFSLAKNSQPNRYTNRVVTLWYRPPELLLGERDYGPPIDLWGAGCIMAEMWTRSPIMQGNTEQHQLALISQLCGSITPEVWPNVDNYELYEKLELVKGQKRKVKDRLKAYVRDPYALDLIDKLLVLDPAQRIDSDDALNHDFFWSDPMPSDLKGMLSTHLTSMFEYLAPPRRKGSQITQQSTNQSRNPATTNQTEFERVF
The target in series [4] is Cyclin-dependent kinase 1 (Homo sapiens, UniProt P06493). Nature of the series: Inhibition of human CDK1 incubated for 20 mins prior to MgCl2 addition measured after 90 mins by mobility shift assay.
Sequence of Cyclin-dependent kinase 1 (P06493 whole entry): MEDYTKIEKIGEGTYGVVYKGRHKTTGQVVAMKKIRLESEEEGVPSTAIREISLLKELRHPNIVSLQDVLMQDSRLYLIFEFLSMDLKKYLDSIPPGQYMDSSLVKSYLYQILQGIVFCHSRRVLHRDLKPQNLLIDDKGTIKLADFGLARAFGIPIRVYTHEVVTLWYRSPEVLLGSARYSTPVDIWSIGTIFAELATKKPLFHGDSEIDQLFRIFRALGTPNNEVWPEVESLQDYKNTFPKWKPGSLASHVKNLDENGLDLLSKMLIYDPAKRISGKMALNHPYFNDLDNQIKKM
The nature of series [5]: Serum protein binding in human at 10 uM after 30 mins by ultrafiltration method. It is filed as ADME. The following applies: read-out: PB (converted).
The target in series [6] is Tyrosine-protein kinase JAK2 (Homo sapiens, UniProt O60674). Kind of series: Inhibition of human JAK2 incubated for 20 mins prior to MgCl2 addition measured after 90 mins by mobility shift assay.
Sequence of Tyrosine-protein kinase JAK2 (O60674 whole entry): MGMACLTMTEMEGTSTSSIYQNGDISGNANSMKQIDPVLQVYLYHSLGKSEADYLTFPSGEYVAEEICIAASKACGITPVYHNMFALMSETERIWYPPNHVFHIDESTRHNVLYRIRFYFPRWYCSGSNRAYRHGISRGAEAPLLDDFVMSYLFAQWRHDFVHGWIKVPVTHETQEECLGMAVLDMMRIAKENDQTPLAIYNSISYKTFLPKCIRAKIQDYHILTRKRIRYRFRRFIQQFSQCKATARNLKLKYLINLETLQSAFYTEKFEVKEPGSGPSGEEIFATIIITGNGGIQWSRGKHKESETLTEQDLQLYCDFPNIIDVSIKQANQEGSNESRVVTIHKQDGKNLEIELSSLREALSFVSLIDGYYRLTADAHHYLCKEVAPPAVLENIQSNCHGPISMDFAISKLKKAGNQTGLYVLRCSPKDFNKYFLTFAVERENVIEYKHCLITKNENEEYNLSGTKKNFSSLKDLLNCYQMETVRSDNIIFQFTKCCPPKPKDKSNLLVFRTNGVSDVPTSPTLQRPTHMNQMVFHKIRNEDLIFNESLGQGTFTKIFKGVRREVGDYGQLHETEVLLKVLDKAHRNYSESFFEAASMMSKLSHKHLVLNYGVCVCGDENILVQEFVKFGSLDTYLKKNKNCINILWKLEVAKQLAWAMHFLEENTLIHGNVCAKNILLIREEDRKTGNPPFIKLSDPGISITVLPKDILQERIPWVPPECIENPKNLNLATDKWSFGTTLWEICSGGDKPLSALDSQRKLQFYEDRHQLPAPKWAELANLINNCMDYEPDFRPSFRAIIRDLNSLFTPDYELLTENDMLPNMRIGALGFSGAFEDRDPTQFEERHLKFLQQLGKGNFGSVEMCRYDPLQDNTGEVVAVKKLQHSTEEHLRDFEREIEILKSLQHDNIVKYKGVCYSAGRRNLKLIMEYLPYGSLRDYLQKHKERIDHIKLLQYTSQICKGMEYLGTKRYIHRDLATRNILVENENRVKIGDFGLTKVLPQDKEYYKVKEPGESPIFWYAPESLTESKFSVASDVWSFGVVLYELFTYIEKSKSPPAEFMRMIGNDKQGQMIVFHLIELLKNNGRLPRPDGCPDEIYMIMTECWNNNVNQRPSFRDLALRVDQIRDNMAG
Series [7] is described as follows: Inhibition of Haemophilus influenzae ATCC 51907 GlmU expressed in Escherichia coli BL21(DE3) incubated for 15 mins prior to MgCl2 addition measured after 30 mins by malachite green staining-based assay.
The target of series [8] is T1, Interleukin-1 receptor-associated kinase 4 (Homo sapiens, UniProt Q9NWZ3).
T1 sequence (Q9NWZ3 whole entry): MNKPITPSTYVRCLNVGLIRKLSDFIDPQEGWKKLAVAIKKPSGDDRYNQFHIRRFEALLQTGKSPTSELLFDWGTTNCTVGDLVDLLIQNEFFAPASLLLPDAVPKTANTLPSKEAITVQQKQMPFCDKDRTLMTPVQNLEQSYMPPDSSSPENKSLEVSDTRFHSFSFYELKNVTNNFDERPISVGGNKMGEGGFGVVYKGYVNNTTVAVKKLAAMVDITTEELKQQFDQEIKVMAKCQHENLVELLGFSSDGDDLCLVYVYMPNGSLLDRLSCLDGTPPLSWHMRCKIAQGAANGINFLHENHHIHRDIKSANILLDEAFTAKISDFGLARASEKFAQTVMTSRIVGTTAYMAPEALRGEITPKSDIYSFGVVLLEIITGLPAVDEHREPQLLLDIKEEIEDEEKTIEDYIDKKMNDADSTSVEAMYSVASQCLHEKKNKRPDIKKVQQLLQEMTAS
Kind of series: Inhibition of human IRAK4 incubated for 20 mins prior to MgCl2 addition measured after 90 mins by mobility shift assay.

The target in series [9] is T2, Tyrosine-protein kinase JAK3 (Homo sapiens, UniProt P52333).
T2 sequence (P52333 whole entry): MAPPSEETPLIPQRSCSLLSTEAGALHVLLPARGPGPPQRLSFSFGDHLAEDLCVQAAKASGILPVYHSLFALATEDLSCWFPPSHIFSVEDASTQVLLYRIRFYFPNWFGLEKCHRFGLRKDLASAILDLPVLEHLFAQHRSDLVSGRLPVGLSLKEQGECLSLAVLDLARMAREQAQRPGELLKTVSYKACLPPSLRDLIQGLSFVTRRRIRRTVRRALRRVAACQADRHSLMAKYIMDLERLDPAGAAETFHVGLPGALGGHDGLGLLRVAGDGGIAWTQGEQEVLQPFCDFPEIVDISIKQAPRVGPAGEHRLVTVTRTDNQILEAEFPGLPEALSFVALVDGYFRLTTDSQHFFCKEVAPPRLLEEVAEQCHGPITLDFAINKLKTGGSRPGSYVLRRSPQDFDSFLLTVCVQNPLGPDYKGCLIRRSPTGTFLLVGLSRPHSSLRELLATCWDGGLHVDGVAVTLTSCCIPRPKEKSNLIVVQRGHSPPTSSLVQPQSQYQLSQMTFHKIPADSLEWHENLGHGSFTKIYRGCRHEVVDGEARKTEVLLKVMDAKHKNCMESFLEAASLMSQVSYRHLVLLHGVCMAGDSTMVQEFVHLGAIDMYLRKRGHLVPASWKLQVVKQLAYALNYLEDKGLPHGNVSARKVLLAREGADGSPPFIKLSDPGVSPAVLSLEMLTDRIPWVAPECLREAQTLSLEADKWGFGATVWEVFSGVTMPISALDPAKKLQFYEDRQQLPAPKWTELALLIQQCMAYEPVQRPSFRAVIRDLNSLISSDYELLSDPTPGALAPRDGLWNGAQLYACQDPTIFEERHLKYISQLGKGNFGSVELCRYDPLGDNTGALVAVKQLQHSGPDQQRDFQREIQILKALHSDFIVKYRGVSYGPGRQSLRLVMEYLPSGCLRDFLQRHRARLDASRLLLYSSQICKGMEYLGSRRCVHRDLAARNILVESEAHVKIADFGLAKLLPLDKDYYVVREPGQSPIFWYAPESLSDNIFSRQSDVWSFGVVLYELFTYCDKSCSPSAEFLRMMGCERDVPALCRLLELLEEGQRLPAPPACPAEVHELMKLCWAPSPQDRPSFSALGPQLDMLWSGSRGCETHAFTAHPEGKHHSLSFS
Nature of the series: Inhibition of human JAK3 incubated for 20 mins prior to MgCl2 addition measured after 90 mins by mobility shift assay.

Series [10] deals with Cyclin-dependent kinase 2 (Homo sapiens, UniProt P24941). Nature of the series: Inhibition of human CDK2 incubated for 20 mins prior to MgCl2 addition measured after 90 mins by mobility shift assay.
The target in another series is Aurora kinase B (Homo sapiens, UniProt Q96GD4). Nature of the series: Inhibition of human AURKB incubated for 20 mins prior to MgCl2 addition measured after 90 mins by mobility shift assay.
Sequence of Aurora kinase B (Q96GD4 whole entry): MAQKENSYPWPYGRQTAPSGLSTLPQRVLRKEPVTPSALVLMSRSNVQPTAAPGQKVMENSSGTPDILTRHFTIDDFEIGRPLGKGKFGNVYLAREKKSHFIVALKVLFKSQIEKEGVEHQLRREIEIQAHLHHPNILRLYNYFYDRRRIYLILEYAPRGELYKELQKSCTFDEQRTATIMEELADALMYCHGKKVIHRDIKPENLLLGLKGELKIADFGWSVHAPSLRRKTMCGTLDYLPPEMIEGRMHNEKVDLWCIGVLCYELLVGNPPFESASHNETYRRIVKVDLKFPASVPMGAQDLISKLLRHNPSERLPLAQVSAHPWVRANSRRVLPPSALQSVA
Series [11] has as its target Bifunctional protein GlmU (Escherichia coli, UniProt C3SLB7). Nature of the series: Inhibition of Escherichia coli ATCC 27325 GlmU expressed in Escherichia coli HMS174(DE3) incubated for 15 mins prior to MgCl2 addition measured after 30 mins by malachite green staining-based assay.
In a further series the test system is Moraxella catarrhalis. Nature of the series: Antibacterial activity against Moraxella catarrhalis after 18 to 24 hrs by agar dilution method. It counts as functional, organism-based.
The test system of the next series is Streptococcus pyogenes. Nature of the series: Antibacterial activity against Streptococcus pyogenes after 18 to 24 hrs by agar dilution method. It counts as functional, organism-based. Background: Agar dilution tests growth on a series of plates holding different concentrations.
A further series has as its system Haemophilus influenzae. Kind of series: Antibacterial activity against Haemophilus influenzae after 18 to 24 hrs by agar dilution method. It is filed as functional, organism-based.
For another series, the system named is Streptococcus pneumoniae. Nature of the series: Antibacterial activity against Streptococcus pneumoniae after 18 to 24 hrs by agar dilution method. It counts as functional, organism-based.

The source made the active and inactive calls. The rule behind the calls is not given here. Some results are limits rather than exact numbers.

Sequence of Interleukin-1 receptor-associated kinase 1 (P51617 whole entry): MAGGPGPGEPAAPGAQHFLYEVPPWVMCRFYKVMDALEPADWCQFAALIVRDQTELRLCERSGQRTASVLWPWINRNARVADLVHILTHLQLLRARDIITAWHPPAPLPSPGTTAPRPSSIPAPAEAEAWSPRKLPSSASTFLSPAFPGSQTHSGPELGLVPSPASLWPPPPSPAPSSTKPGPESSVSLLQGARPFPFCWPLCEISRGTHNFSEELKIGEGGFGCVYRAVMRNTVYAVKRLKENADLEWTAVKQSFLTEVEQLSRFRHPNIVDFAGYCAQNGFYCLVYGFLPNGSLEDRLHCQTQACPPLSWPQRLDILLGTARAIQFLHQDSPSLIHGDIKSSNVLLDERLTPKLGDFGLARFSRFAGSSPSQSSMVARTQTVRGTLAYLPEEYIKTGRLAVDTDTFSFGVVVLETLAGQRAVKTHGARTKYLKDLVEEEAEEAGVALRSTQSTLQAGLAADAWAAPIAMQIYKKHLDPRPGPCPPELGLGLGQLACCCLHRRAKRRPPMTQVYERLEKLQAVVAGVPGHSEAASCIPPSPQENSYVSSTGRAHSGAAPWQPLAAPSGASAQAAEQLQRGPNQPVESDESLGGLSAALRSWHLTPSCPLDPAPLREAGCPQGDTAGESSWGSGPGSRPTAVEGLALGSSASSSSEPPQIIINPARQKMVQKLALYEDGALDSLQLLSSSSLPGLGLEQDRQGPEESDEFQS
Sequence of Bifunctional protein GlmU (C3SLB7 whole entry): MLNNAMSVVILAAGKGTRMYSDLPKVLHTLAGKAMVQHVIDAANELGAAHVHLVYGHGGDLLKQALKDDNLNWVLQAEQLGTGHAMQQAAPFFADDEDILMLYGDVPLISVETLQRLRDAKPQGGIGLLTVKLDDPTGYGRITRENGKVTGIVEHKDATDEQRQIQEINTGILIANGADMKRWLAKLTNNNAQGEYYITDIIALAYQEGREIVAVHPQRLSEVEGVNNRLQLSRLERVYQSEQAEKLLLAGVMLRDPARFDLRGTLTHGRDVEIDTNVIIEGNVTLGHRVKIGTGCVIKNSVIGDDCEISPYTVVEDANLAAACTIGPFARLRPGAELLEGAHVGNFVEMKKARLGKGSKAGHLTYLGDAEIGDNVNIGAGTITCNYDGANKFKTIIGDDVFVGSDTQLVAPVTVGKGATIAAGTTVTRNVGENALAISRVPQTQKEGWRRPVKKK

By IC50 is commonly meant the midpoint of a concentration-inhibition curve. In the case of `COc1cc(C(=O)Nc2ccc(NC(=O)c3ccccn3)cc2)ccc1O`, the IC50 in series [1] is greater than 30 µM; in series [2] it was greater than 30 µM; in series [3] it was greater than 30 µM; in series [4] it was greater than 30 µM; in [6], greater than 30 µM; in [7], 0.51 µM. In addition, the half-inhibitory concentration (IC50) in series [8] is greater than 30 µM; in series [9], greater than 30 µM; in series [10], greater than 30 µM; on Aurora kinase B it was 5.91 µM; in series [11], 8.2 µM. In addition, in series [5], the fraction unbound at 0.5 h, 10 µM was 0.016.

As to `COc1cc(C(=O)Nc2ccc(NC(=O)C3CCCCN3)cc2)cc(-c2c[nH]c(=O)[nH]c2=O)c1` (stereo not drawn), the half-maximal inhibitory concentration (IC50) in series [1] is greater than 30 µM; in series [2], greater than 30 µM; in series [3], greater than 30 µM; in [4] it was greater than 30 µM; in series [6], greater than 30 µM; in series [7], 0.05 µM. The IC50 in [8] is greater than 30 µM; in [9] it was greater than 30 µM; in [10], greater than 30 µM; at Aurora kinase B, greater than 30 µM; in [11], 0.12 µM. For the same compound, the result in the series on Moraxella catarrhalis, with Streptococcus pyogenes, in the series with Haemophilus influenzae and with Streptococcus pneumoniae was inactive. The fraction unbound at 0.5 h, 10 µM in series [5] was 0.395.

For the compound `COc1cc2c(Nc3ccc(NC(=O)c4ccccc4)cc3)ncnc2cc1OCC(=O)O`, the 50% inhibitory concentration (IC50) in series [1] was greater than 30 µM; in series [2], greater than 30 µM; in [3] it was greater than 30 µM; in series [4], greater than 30 µM; in [6], greater than 30 µM; in series [7], 3.2 µM. Besides, the concentration for half-maximal inhibition (IC50) in series [8] is greater than 30 µM; in series [9] it was greater than 30 µM; in [10], greater than 30 µM; at Aurora kinase B, 0.689 µM; in series [11], 6.7 µM. In addition, the fraction unbound at 0.5 h, 10 µM in [5] was less than 0.01.

As for `COc1cc2c(Nc3ccc(NC(=O)c4ccccc4)cc3)nc(N)nc2cc1O`, the IC50 in series [1] is greater than 30 µM; in series [2], greater than 30 µM; in series [3], greater than 30 µM; in series [4], greater than 30 µM; in [6], greater than 30 µM; in series [7], 1.7 µM. Also, the half-inhibitory concentration (IC50) was greater than 30 µM in series [8]; greater than 30 µM in series [9]; greater than 30 µM in series [10]; greater than 30 µM on Aurora kinase B; 10.5 µM in series [11]. The fraction unbound at 0.5 h, 10 µM in series [5] is 0.023.

Consider `COc1cc(C(=O)Nc2ccc(NC(=O)c3ccccc3)cc2)c(N)cc1O`, for which the IC50 was greater than 30 µM in series [1]; greater than 30 µM in series [2]; greater than 30 µM in series [3]; greater than 30 µM in series [4]; greater than 30 µM in series [6]; 6.1 µM in series [7]. For the same compound, the IC50 in series [8] was greater than 30 µM; in [9] it was greater than 30 µM; in [10], greater than 30 µM; on Aurora kinase B, greater than 30 µM; in series [11] it was 5.9 µM. The fraction unbound at 0.5 h, 10 µM in series [5] was 0.011.

For `COc1cc(C(=O)Nc2ccc(NC(=O)c3ccccn3)cc2)cc(N2CCC(=O)NC2=O)c1`, the IC50 in series [1] was greater than 30 µM; in [2], greater than 30 µM; in series [3], greater than 30 µM; in series [4], greater than 30 µM; in series [6] it was greater than 30 µM; in [7], 0.071 µM. Further, the IC50 is greater than 30 µM in series [8]; greater than 30 µM in [9]; greater than 30 µM in series [10]; 14.3 µM at Aurora kinase B; 1.7 µM in series [11]. Moreover, the fraction unbound at 0.5 h, 10 µM in [5] is 0.097.

With `COc1cc(C(=O)Nc2ccc(NC(=O)c3ccccc3)cc2)ccc1O`, the half-maximal inhibitory concentration (IC50) was greater than 30 µM in series [1]; greater than 30 µM in series [2]; greater than 30 µM in series [3]; greater than 30 µM in [4]; greater than 30 µM in [6]; 1.4 µM in series [7]. Moreover, the concentration for half-maximal inhibition (IC50) in [8] was greater than 30 µM; in series [9], greater than 30 µM; in series [10], greater than 30 µM; at Aurora kinase B it was greater than 30 µM; in series [11], 18 µM. Moreover, in series [5], the fraction unbound at 0.5 h, 10 µM is less than 0.01.

As for `COc1cc2c(Nc3ccc(NC(=O)c4ccccc4)cc3)nc(C)nc2cc1O`, the IC50 in series [1] is greater than 30 µM; in series [2], greater than 30 µM; in series [3], greater than 30 µM; in series [4], greater than 30 µM; in [6], greater than 30 µM; in series [7] it was 0.39 µM. In addition, the IC50 in [8] is greater than 30 µM; in series [9] it was greater than 30 µM; in series [10], greater than 30 µM; on Aurora kinase B, greater than 30 µM; in [11], 2.2 µM. The fraction unbound at 0.5 h, 10 µM in series [5] is 0.097.

On to `CCNC(=O)Nc1ccc(NC(=O)c2cc(OC)cc(-c3c[nH]c(=O)[nH]c3=O)c2)cc1`, for which the IC50 in series [1] is greater than 30 µM; in [2], greater than 30 µM; in [3], greater than 30 µM; in [4] it was greater than 30 µM; in [6] it was greater than 30 µM; in series [7], 0.077 µM. For the same compound, the IC50 is greater than 30 µM in series [8]; greater than 30 µM in series [9]; greater than 30 µM in series [10]; 18.1 µM on Aurora kinase B; 0.97 µM in series [11]. The result with Moraxella catarrhalis, in the series with Streptococcus pyogenes, in the series with Haemophilus influenzae and in the series on Streptococcus pneumoniae was inactive. Besides, the fraction unbound at 0.5 h, 10 µM in [5] was 0.159.

For the compound `O=C(Nc1ccc(NC(=O)c2ccccn2)cc1)c1cccc(-c2c[nH]c(=O)[nH]c2=O)c1`, the concentration for half-maximal inhibition (IC50) was greater than 30 µM in series [1]; greater than 30 µM in series [2]; greater than 30 µM in [3]; greater than 30 µM in series [4]; greater than 30 µM in series [6]; 0.005 µM in series [7]. In addition, the concentration for half-maximal inhibition (IC50) in series [8] is greater than 30 µM; in series [9], greater than 30 µM; in series [10], greater than 30 µM; on Aurora kinase B it was 7.51 µM; in series [11], 0.35 µM. In addition, the fraction unbound at 0.5 h, 10 µM in series [5] was 0.019.
